In patent US9113629B2, “4-amino-6-(4-substituted-phenyl)-picolinates and 6-amino-2-(4-substituted-phenyl)-pyrimidine-4-carboxylates and their use as herbicides” (DOW AGROSCIENCES LLC, priority 2013, dated 2015):
Read-outs that look alike come from different tables or passages of the source.

What was measured:
[1] = system: Key Broadleaf Weed and Crop Species; test: Post-emergent Test II herbicidal activity (Table 5); format: in vivo; conditions: post-emergence, 336 h, post-emergent, 14 days after application; for pest or weed control at 70 g/ha: 70 g ai/ha; for pest or weed control at 140 g/ha: 140 g ai/ha
Outline: (§1)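 Visual injury ratings (0 = no injury, 100 = complete kill) were taken 14 d after treatment, relative to untreated plants. Seedlings at the first–second true leaf stage received overhead spray at 187 L/ha; the highest rate was serially diluted to ½×, ¼×, ⅛× and 1/16×.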

[2] = system: Key Grass and Sedge Weeds as well as Grass Crops; test: Post-emergent Test II herbicidal activity (Table 6); format: in vivo; conditions: post-emergence, 336 h; for pest or weed control at 70 g/ha: application rate 70 g ai/ha; for pest or weed control at 140 g/ha: application rate 140 g ai/ha
Outline: as §1

[3] = ABUTH: velvetleaf (Abutilon theophrasti), read-out: Visual Growth Reduction (%) 14 Days After Application ABUTH
[4] = AMARE: redroot pigweed (Amaranthus retroflexus), read-out: Visual Growth Reduction (%) 14 Days After Application AMARE
[5] = BRSNN: oilseed-rape, canola (Brassica napus), read-out: Visual Growth Reduction (%) 14 Days After Application BRSNN
[6] = CHEAL: lambsquarters (Chenopodium album), read-out: Visual Growth Reduction (%) 14 Days After Application CHEAL
[7] = EPHHL: wild poinsettia (Euphorbia heterophylla), read-out: Visual Growth Reduction (%) 14 Days After Application EPHHL
[8] = HELAN: sunflower (Helianthus annuus), read-out: Visual Growth Reduction (%) 14 Days After Application HELAN
[9] = VIOTR: wild pansy (Viola tricolor), read-out: Visual Growth Reduction (%) 14 Days After Application VIOTR
[10] = Triticum aestivum, TRZSS (wheat), read-out: Visual Growth Reduction (%) 14 Days After Application, TRZSS
[11] = CYPES: yellow nutsedge (Cyperus esculentus), read-out: Visual Growth Reduction (%) 14 Days After Application, CYPES
[12] = DIGSA: crabgrass (Digitaria sanguinalis), read-out: Visual Growth Reduction (%) 14 Days After Application, DIGSA
[13] = ECHCG: barnyardgrass (Echinochloa crus-galli), read-out: Visual Growth Reduction (%) 14 Days After Application, ECHCG
[14] = ORYSA: rice (Oryza sativa), read-out: Visual Growth Reduction (%) 14 Days After Application, ORYSA
[15] = SETFA: giant foxtail (Setaria faberi), read-out: Visual Growth Reduction (%) 14 Days After Application, SETFA
[16] = SORVU: grain sorghum (Sorghum vulgare), read-out: Visual Growth Reduction (%) 14 Days After Application, SORVU
[17] = ZEAMX: maize, corn (Zea mays), read-out: Visual Growth Reduction (%) 14 Days After Application, ZEAMX

Structure (SMILES)	pest or weed control at 70 g/ha [1, 3] [%]	pest or weed control at 140 g/ha [1, 3] [%]	pest or weed control at 70 g/ha [1, 4] [%]	pest or weed control at 140 g/ha [1, 4] [%]	pest or weed control at 70 g/ha [1, 5] [%]	pest or weed control at 140 g/ha [1, 5] [%]	pest or weed control at 70 g/ha [1, 6] [%]	pest or weed control at 140 g/ha [1, 6] [%]	pest or weed control at 70 g/ha [1, 7] [%]	pest or weed control at 140 g/ha [1, 7] [%]	pest or weed control at 70 g/ha [1, 8] [%]	pest or weed control at 140 g/ha [1, 8] [%]	pest or weed control at 70 g/ha [1, 9] [%]	pest or weed control at 140 g/ha [1, 9] [%]	pest or weed control at 70 g/ha [2, 10] [%]	pest or weed control at 140 g/ha [2, 10] [%]	pest or weed control at 70 g/ha [2, 11] [%]	pest or weed control at 140 g/ha [2, 11] [%]	pest or weed control at 70 g/ha [2, 12] [%]	pest or weed control at 140 g/ha [2, 12] [%]	also measured
COC(=O)c1nc(-c2ccc(Br)c(F)c2)c(Cl)c(N)c1Cl [Compound 73, Methyl 4-amino-6-(4-bromo-3-fluorophenyl)-3,5-dichloropicolinate]	85 to 94	85 to 94	95 to 100	95 to 100	95 to 100	95 to 100	85 to 94	85 to 94	45 to 59	60 to 74	95 to 100	95 to 100	45 to 59	45 to 59	60 to 74	60 to 74	95 to 100	95 to 100	0 to 29	45 to 59	pest or weed control at 70 g/ha [2, 13]: 0 to 29%; pest or weed control at 140 g/ha [2, 13]: 60 to 74%; pest or weed control at 70 g/ha [2, 14]: 0 to 29%; pest or weed control at 140 g/ha [2, 14]: 0 to 29%; pest or weed control at 70 g/ha [2, 15]: 60 to 74%; pest or weed control at 140 g/ha [2, 15]: 60 to 74%; pest or weed control at 70 g/ha [2, 16]: 85 to 94%; pest or weed control at 140 g/ha [2, 16]: 85 to 94%; pest or weed control at 70 g/ha [2, 17]: 60 to 74%; pest or weed control at 140 g/ha [2, 17]: 60 to 74%
Nc1cc(-c2ccc(Br)cc2F)nc(C(=O)O)c1Cl [Compound 74]	95 to 100	95 to 100	95 to 100	95 to 100	85 to 94	85 to 94	95 to 100	95 to 100	95 to 100	95 to 100	95 to 100	95 to 100	95 to 100	95 to 100	45 to 59	60 to 74	95 to 100	95 to 100	85 to 94	85 to 94	pest or weed control at 70 g/ha [2, 13]: 85 to 94%; pest or weed control at 140 g/ha [2, 13]: 85 to 94%; pest or weed control at 70 g/ha [2, 14]: 0 to 29%; pest or weed control at 140 g/ha [2, 14]: 30 to 44%; pest or weed control at 70 g/ha [2, 15]: 75 to 84%; pest or weed control at 140 g/ha [2, 15]: 85 to 94%; pest or weed control at 70 g/ha [2, 16]: 85 to 94%; pest or weed control at 140 g/ha [2, 16]: 85 to 94%; pest or weed control at 70 g/ha [2, 17]: 75 to 84%; pest or weed control at 140 g/ha [2, 17]: 75 to 84%
